# Test results from patent publication US20180028425A1, “COSMETIC COMPOSITIONS OF UV FILTERS” (3V Sigma S.P.A., priority 2016, published 2018).
# Experiment: UV-A/UV-B ratio of the UV filter compounds
# Assay type: physicochemical
# From the text: Typically, the numerical UV-A/UV-B ratio of these compounds, defined as the ratio of the intensity of the radiation absorbed between 320 nm and 400 nm (UVA fraction) to that absorbed between 290 nm and 320 nm (UVB fraction), is greater than 0.20, preferably greater than 0.30, whereas in the analogous triazine compounds with a 4-aminobenzoate or 4-aminobenzamide substituent different from the substituents described in Formula (IV), it is below about 0.14.
# The UVA:UVB ratio is the ratio between the intensity of the radiation absorbed between 320 nm and 400 nm (UVA fraction) and that absorbed between 290 nm and 320 nm (UVB fraction).
row,SMILES,"UVA fraction compared with known triazine analogues (diethylhexyl butamido triazone, ethylhexyl triazone)"
1,CCCCC(CC)COC(=O)c1ccc(NC(=O)c2ccc(Nc3nc(Nc4ccc(C(=O)NC(C)(C)C)cc4)nc(Nc4ccc(C(=O)OCC(CC)CCCC)cc4)n3)cc2)cc1 (stereo not drawn) [Compound (VI)],at least twice as high
2,CCCCC(CC)COC(=O)c1ccc(NC(=O)c2ccc(Nc3nc(Nc4ccc(C(=O)Nc5ccc(C(=O)OCC(CC)CCCC)cc5)cc4)nc(Nc4ccc(C(=O)NC(C)(C)C)cc4)n3)cc2)cc1 (stereo not drawn) [Compound (V)],at least twice as high
3,CCCCC(CC)COC(=O)c1ccc(NC(=O)c2ccc(Nc3nc(Nc4ccc(C(=O)OCC(CC)CCCC)cc4)nc(Nc4ccc(C(=O)OCC(CC)CCCC)cc4)n3)cc2)cc1 (stereo not drawn) [Compound (VII)],at least twice as high
